Test results published in US8754115B2, “Fungicidal pyrazoles” (E I du Pont de Nemours and Company, priority 2010, dated 2014).
Marks after values point to notes of the source that are not given here.

Assays:
Format in all cases: in vivo
[1] = system: Puccinia recondite f. sp. tritici; test: Test E1: curative spray on wheat seedlings after inoculation, visual disease rating (wheat leaf rust)
In short: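 Seedlings inoculated with rust spores, held 24 h in saturated atmosphere at 20 °C, then 2 days at 20 °C before curative spray to run-off with test suspension (200 ppm ≈ 800 g/ha, or 40 ppm where marked) in acetone/water with surfactant. Visual disease control rating (0–100) after 6 further days at 20 °C.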

Septoria nodorum = test: Test C: preventive spray on wheat seedlings, visual disease rating (Septoria glume blotch)
In short: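 Wheat seedlings were sprayed to run-off with 200 ppm suspension (40 ppm where marked; 200 ppm ≈ 800 g/ha) in acetone/water with 250 ppm Trem 014, then inoculated next day with Septoria nodorum spores. Incubation was 48 h saturated at 24 °C, then 6 days at 20 °C; visual rating 0–100% disease control versus controls.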

Botrytis cinerea = test: Test A: preventive spray on tomato seedlings, visual disease rating (tomato Botrytis)
In short: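 Tomato seedlings sprayed to run-off with 200 ppm suspension (800 g/ha; asterisk marks 40 ppm), inoculated next day with Botrytis cinerea spores, held 48 h saturated at 20 °C then 3 days at 24 °C. Visual rating: 100 = full disease control, 0 = none, relative to controls.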

[2] = system: Puccinia recondite f. sp. tritici; test: Test E2: preventive spray on wheat seedlings, visual disease rating (wheat leaf rust)
In short: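 Test suspension (acetone 3% of volume, acetone/water 50/50, 250 ppm Trem 014), 200 ppm unless starred (40 ppm), sprayed to run-off on wheat seedlings; inoculated next day with P. recondita spores. 24 h saturated atmosphere at 20 °C, then 7 days at 20 °C; visual rating, 100 = full control vs untreated.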

Alternaria solani = test: Test B: preventive spray on tomato seedlings, visual disease rating (tomato early blight)
In short: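 Compounds were suspended at 200 ppm (asterisked values at 40 ppm) in acetone/water with surfactant and sprayed to run-off on tomato seedlings, 200 ppm being equivalent to 800 g/ha. A. solani spores were inoculated the next day, with 48 h at 27 °C in saturated air, then 5 days at 20 °C. Disease control was rated visually, 0–100% relative to controls.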

[3] = system: Blumeria graminis f. sp. tritici; test: Test F: preventive spray on wheat seedlings, visual disease rating (wheat powdery mildew)
In short: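 Compound in acetone/water (50/50) with 250 ppm surfactant, sprayed to run-off on wheat seedlings at 200 ppm (≈800 g/ha) or, where marked, 40 ppm. Seedlings dusted with spores the next day, kept 8 days at 20° C., then rated visually as % disease control versus untreated plants.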

Septoria tritici = test: Test D: preventive spray on wheat seedlings, visual disease rating (wheat leaf blotch)
In short: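 Wheat seedlings were sprayed to run-off with a 200 ppm suspension (equal to 800 g/ha), or 40 ppm where marked with an asterisk, and inoculated with Septoria tritici spores the next day. Plants were kept at 24 °C in saturated air for 48 h, then at 20 °C for 19 days. Disease control was rated visually from 0 to 100 relative to controls.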

[4] = no asterisk: standard test suspension, not 40 ppm
[5] = no asterisk: standard test suspension, not 40 ppm, 100 = 100% disease control, 0 = none
[6] = asterisk: 40 ppm test suspension

| SMILES | Test E1 rating (% disease control) [1, 4] | Test C rating (% disease control) (Septoria nodorum; [4]) | Test A rating (% disease control) (Botrytis cinerea; [5]) | Test E2 rating (% disease control) [2, 4] | Test B rating (% disease control) (Alternaria solani; [4]) | Test F rating (% disease control) [3, 4] | Test D rating (% disease control) (Septoria tritici; [4]) | Test E1 rating (% disease control) [1, 6] | Test C rating (% disease control) (Septoria nodorum; [6]) | Test A rating (% disease control) (Botrytis cinerea; [6]) | Test E2 rating (% disease control) [2, 6] | Test B rating (% disease control) (Alternaria solani; [6]) | Test F rating (% disease control) [3, 6] | Test D rating (% disease control) (Septoria tritici; [6]) |
| --- | --- | --- | --- | --- | --- | --- | --- | --- | --- | --- | --- | --- | --- | --- |
| COc1ccc(-c2c(Oc3ccc(F)cc3Cl)c(C)nn2C)c(Cl)c1 [compound 31] | 0% | 0% | 100% | 92% | 0% | 96% | 100% |  |  |  |  |  |  |  |
| Cc1nn(C)c(-c2c(F)cccc2Cl)c1C(O)c1ccc(F)cc1F (centres unmarked) [compound 33] | 99% | 100% | 100% | 100% | 100% | 100% | 100% |  |  |  |  |  |  |  |
| Cc1nn(C)c(-c2c(F)cccc2Cl)c1C(O)c1c(F)cc(F)cc1F (centres unmarked) [compound 34] | 84% | 100% | 100% | 99% | 99% | 100% | 100% |  |  |  |  |  |  |  |
| Cc1nn(C)c(-c2ccc(F)cc2F)c1Oc1ccc(C#N)cc1Cl [compound 35] | 9% | 0% | 98% | 73% | 0% | 0% | 100% |  |  |  |  |  |  |  |
| Cc1nn(C)c(-c2ccc(C#N)cc2Cl)c1Oc1ccc(F)cc1Cl [compound 36] | 18% | 0% | 96% | 100% | 0% | 100% | 100% |  |  |  |  |  |  |  |
| Cc1nn(C)c(-c2c(F)cccc2Cl)c1C(O)c1ccc(C#N)cc1F (centres unmarked) [compound 38] | 0% | 100% | 85% | 100% | 99% | 98% | 100% |  |  |  |  |  |  |  |
| COc1cc(F)c(C(O)c2c(C)nn(C)c2-c2c(F)cccc2Cl)c(F)c1 (centres unmarked) [compound 39] | 97% | 60% | 95% | 100% | 58% | 99% | 100% |  |  |  |  |  |  |  |
| Cc1nn(C)c(-c2ccc(F)cc2Cl)c1Nc1ccc(F)cc1 [compound 41] | 0% | 0% | 100% | 41% | 64% | 0% | 98% |  |  |  |  |  |  |  |
| Cc1nn(C)c(-c2ccc(F)cc2Cl)c1Nc1ccc(F)cc1Cl [compound 42] | 32% | 0% | 99% | 99% | 99% | 100% | 100% |  |  |  |  |  |  |  |
| Cc1nn(C)c(-c2ccc(F)cc2Cl)c1Oc1ccc(C#N)cc1Cl [compound 43] | 0% | 0% | 98% | 98% | 0% | 97% | 100% |  |  |  |  |  |  |  |
| Cc1nn(C)c(-c2ccc(F)cc2Cl)c1Nc1ccc(Cl)cc1Cl [compound 44] |  |  |  |  |  |  |  | 0* % | 0* % | 99* % | 99* % | 0* % | 100* % | 99* % |
| Cc1nn(C)c(-c2c(F)cccc2F)c1Nc1ccc(F)cc1Cl [compound 50] | 0% | 0% | 99% | 79% | 93% | 98% | 100% |  |  |  |  |  |  |  |
| Cc1nn(C)c(-c2c(F)cccc2Cl)c1C(O)c1c(Cl)cc(Cl)cc1Cl (centres unmarked) [compound 55] | 99% | 78% | 99% | 100% | 97% | 95% | 100% |  |  |  |  |  |  |  |
| Cc1nn(C)c(-c2ccc(F)cc2F)c1Nc1ccc(F)cc1Cl [compound 57] |  |  |  |  |  |  |  | 0* % | 0* % | 99* % | 18* % | 0* % | 97* % | 81* % |
| Cc1nn(C)c(-c2ccc(F)cc2Cl)c1Nc1ccc(F)cc1Br [compound 58] |  |  |  |  |  |  |  | 0* % | 0* % | 100* % | 98* % | 8* % | 97* % | 100* % |
| Cc1nn(C)c(-c2c(F)cc(F)cc2F)c1C(=O)c1ccc(F)cc1Cl [compound 59] | 0% | 0% | 66% | 80% | 0% | 100% | 58% |  |  |  |  |  |  |  |
| Cc1nn(C)c(-c2c(F)cc(F)cc2F)c1C(=O)c1ccc(F)cc1F [compound 60] | 0% | 0% | 75% | 55% | 0% | 99% | 0% |  |  |  |  |  |  |  |
| Cc1nn(C)c(-c2c(F)cc(F)cc2F)c1C(O)c1ccc(F)cc1Cl (centres unmarked) [compound 61] | 99% | 99% | 100% | 100% | 100% | 100% | 100% |  |  |  |  |  |  |  |
| Cc1nn(C)c(-c2c(F)cccc2F)c1S(=O)(=O)c1ccc(Cl)cc1 [compound 62] | 0% | 0% | 0% | 28% | 0% | 94% | 0% |  |  |  |  |  |  |  |
| Cc1nn(C)c(-c2c(F)cccc2F)c1[S+]([O-])c1ccc(Cl)cc1 (centres unmarked) [compound 63] | 0% | 0% | 0% | 28% | 0% | 76% | 0% |  |  |  |  |  |  |  |
| Cc1nn(C)c(-c2c(F)cccc2F)c1Nc1ccc(F)cc1F [compound 64] | 0% | 0% | 99% | 55% | 0% | 97% | 48% |  |  |  |  |  |  |  |
| Cc1nn(C)c(-c2c(F)cccc2F)c1Nc1ccc(Cl)cc1Cl [compound 65] | 9% | 0% | 100% | 89% | 0% | 100% | 100% |  |  |  |  |  |  |  |
| Cc1nn(C)c(-c2c(F)cc(F)cc2F)c1C(O)c1ccc(F)cc1F (centres unmarked) [compound 66] | 55% | 95% | 100% | 100% | 100% | 99% | 100% |  |  |  |  |  |  |  |
